Data reported in patent US7795226B2, “Control of radiation injury” (Biotempt B.V., priority 2006, dated 2010).

The substances below were run on cell-cycle marker pCDG and auxin-responsive marker DR5::GUS (assay: Arabidopsis thaliana seedling cell-cycle analysis (GUS markers)). Details: Results from Examples 9 and 10.
Experimental: To further study anti-cell-cycle activity of various oligopeptides, a proliferation experiment in Arabidopsis Thaliana seedlings was performed. The aim was to test a group of 140 oligopeptides of varying length for their effect on plant marker gene expression during rapid growth when avid cell division occurs.
The peptides were re-suspended in 1× Phosphate Buffer Saline (PBS) pH 8 to a final concentration of 5 mg/ml. The obtained solutions were then divided through 96-well round bottom plates (Corning Incorporated) at 40 microliters per well. Plates were stored before use at […] for four days. Seeds of Arabidopsis thaliana ecotype Ws-0 were surface sterilized in 2% commercial bleach (Gloria) for ten minutes and washed five times with sterile MQ water. The seeds were then re-suspended with 0.1% agar and plated on MS20 plates supplemented with 80 mg/l Kanamycin.
The plates were placed at […] for two nights and then transferred to a climate room at […] and a 16/8 hours photoperiod. After four days of growth, the seedlings were transferred to 96-well plates containing the peptide solutions (four seedlings per well) and incubated for four and eight hours.
For this experiment, Arabidopsis homozygous seedlings harboring two reporter genes fused to GUS were used. […] After incubation with the compounds, the seedlings were stained for GUS. The staining reaction was performed in 100 mM sodium phosphate buffer (pH 7.0) that contained 10 mM EDTA, 10% DMSO, 0.1% Triton X-100, 2 mM X-Gluc, 0.5 mM K3Fe(CN)6 and 0.5 mM K4Fe(CN)6 at […] for 16 hours. […] Seedlings were fixed and cleared in chloral hydrate solution for detailed microscopic observation and photography under a microscope equipped with DIC optics.
Peptides were tested for an effect on marker gene expression on rapidly growing Arabidopsis young seedlings. This was monitored by changes on GUS distribution in different organs: root, root-hypocotyl transition zone and cotyledons.
In the case of AFTV (CRP-derived peptide), the “identified as useful peptide for treatment of radiation injury from cell-cycle studies in plants and in vitro proliferation studies” value (“identified as useful peptide” for short) is reported as “useful”.
For “APSL (human beta-catenin-derived peptide)”, the “identified as useful peptide” value was “useful”.
For AVAL, the “identified as useful peptide” value was “useful”.
CPRGVNP was tested, and the “identified as useful peptide” value was “useful”.
For CPVQ (tetramer peptide), the “identified as useful peptide” value was “useful”.
In the case of DINGFLPAL, the “identified as useful peptide” value is reported as “useful”.
In the case of EALE (tetramer peptide), the “identified as useful peptide” value is reported as “useful”.
In the case of EMFQ (tetramer peptide), the “identified as useful peptide” value is reported as “useful”.
EPPE (tetramer peptide) was tested, and the “identified as useful peptide” value was “useful”.
In the case of EVVR (tetramer peptide), the “identified as useful peptide” value is reported as “useful”.
For FSYA (CRP-derived peptide), the “identified as useful peptide” value was “useful”.
With FVLS (CRP-derived peptide) the “identified as useful peptide” value was “useful”.
With FWVD (CRP-derived peptide) the “identified as useful peptide” value was “useful”.
In the case of “GVLC (human beta-catenin-derived peptide)”, the “identified as useful peptide” value is reported as “useful”.
For “ITTL (human beta-catenin-derived peptide)”, the “identified as useful peptide” value was “useful”.
In the case of LCFL, the “identified as useful peptide” value is reported as “useful”.
For LGTL, the “identified as useful peptide” value was “useful”.
With LHNL the “identified as useful peptide” value was “useful”.
With LNEAL (pentamer peptide) the “identified as useful peptide” value was “useful”.
“LNTI (human beta-catenin-derived peptide)” was tested, and the “identified as useful peptide” value was “useful”.
LQAV (tetramer peptide) was tested, and the “identified as useful peptide” value was “useful”.
With LQGA (tetramer peptide) the “identified as useful peptide” value was “useful”.
For LTCDDP, the “identified as useful peptide” value was “useful”.
MGGTWA was tested, and the “identified as useful peptide” value was “useful”.
In the case of MTEV (tetramer peptide), the “identified as useful peptide” value is reported as “useful”.
With “NLIN (human beta-catenin-derived peptide) [NUN]” the “identified as useful peptide” value was “useful”.
In the case of NMWD (CRP-derived peptide), the “identified as useful peptide” value is reported as “useful”.
With PGCP the “identified as useful peptide” value was “useful”.
“QALG (human beta-catenin-derived peptide)” was tested, and the “identified as useful peptide” value was “useful”.
For “QLLG (human beta-catenin-derived peptide)”, the “identified as useful peptide” value was “useful”.
For QPLAPLVG, the “identified as useful peptide” value was “useful”.
For QVVC (tetramer peptide), the “identified as useful peptide” value was “useful”.
In the case of RLPG, the “identified as useful peptide” value is reported as “useful”.
With RVLQ (tetramer peptide) the “identified as useful peptide” value was “useful”.
With “SPIE (human beta-catenin-derived peptide)” the “identified as useful peptide” value was “useful”.
For TLAVE (beta-hCG-derived peptide), the “identified as useful peptide” value was “useful”.
VCNYRDV was tested, and the “identified as useful peptide” value was “useful”.
With VEGNL (pentamer peptide) the “identified as useful peptide” value was “useful”.
In the case of VGGI, the “identified as useful peptide” value is reported as “useful”.
For VGQL (tetramer peptide), the “identified as useful peptide” value was “useful”.
With VLPAPLQ (septamer peptide) the “identified as useful peptide” value was “useful”.
In the case of “YAIT (human beta-catenin-derived peptide)”, the “identified as useful peptide” value is reported as “useful”.

Same assay, conditions: seedlings incubated four and eight hours; 5 mg/ml peptide solution
In the case of DINGFLPAL, the “effect on cell-cycle marker (pCDG) and auxin-responsive marker (DR5::GUS) (in words)” value is reported as “less consistent and time-dependent effect”.
